Measured values published in article PMC8881512 (Nature Communications, 2022).
Several values for one entry are separate records, joined by “and”; a condition that tells them apart may be missing. Equal entries are not always repeated.

How the values were obtained:
[1] = target: T1, p70S6K/RPS6KB1 (Homo sapiens, UniProt P23443); assay: Kinome profiling; format: biochemical; details: VT02956 (5 nM), read-out: % enzymatic activity relative to DMSO controls
T1 construct: LATS1/LATS2 enzymes from Signalchem

[2] = target: T2, BLK (Homo sapiens, UniProt P51451); assay: Kinome profiling; format: biochemical; details: VT02956 (5 nM), read-out: % enzymatic activity relative to DMSO controls
T2 construct: LATS1/LATS2 enzymes from Signalchem

[3] = test system: MCF-7 cells; assay: Cell proliferation by cell counting, MCF-7; format: cell-based, human; details: for Cell proliferation normalised to DMSO treated WT cells: 4 days, Fig.6c
Method: Cell proliferation rates were determined by automated cell counter. In brief, cells were plated at density of 0.1 million cells per well in six-well plate. Cell numbers were counted by the indicated time point as stated in the figure legends.

[4] = test system: 4T1 cells; assay: Cell viability, 4T1; format: cell-based
[5] = test system: Phospho-YAP (Ser127) in 4T1 cells; assay: Cellular Phospho-YAP HTRF assay, 4T1; format: cell-based; details: for YAP phosphorylation: 4T1, Fig.5d
[6] = target: T3, RSK1 (Homo sapiens, UniProt Q15418); assay: Kinome profiling; format: biochemical; details: VT02956 (5 nM), read-out: % enzymatic activity relative to DMSO controls
T3 construct: LATS1/LATS2 enzymes from Signalchem

[7] = target: T4, CDK9/cyclin T2 (Homo sapiens, UniProt P50750); assay: Kinome profiling; format: biochemical; details: VT02956 (5 nM), read-out: % enzymatic activity relative to DMSO controls
T4 construct: LATS1/LATS2 enzymes from Signalchem

[8] = target: T5, CDK9/cyclin T1 (Homo sapiens, UniProt P50750); assay: Kinome profiling; format: biochemical; details: VT02956 (5 nM), read-out: % enzymatic activity relative to DMSO controls
T5 construct: LATS1/LATS2 enzymes from Signalchem

[9] = target: T6, CK2a (Homo sapiens, UniProt P68400); assay: Kinome profiling; format: biochemical; details: VT02956 (5 nM), read-out: % enzymatic activity relative to DMSO controls
T6 construct: LATS1/LATS2 enzymes from Signalchem

[10] = target: T7, AKT1 (Homo sapiens, UniProt P31749); assay: Kinome profiling; format: biochemical; details: VT02956 (5 nM)
T7 construct: LATS1/LATS2 enzymes from Signalchem

[11] = target: T8, IKKb/IKBKB (Homo sapiens, UniProt O14920); assay: Kinome profiling; format: biochemical; details: VT02956 (5 nM), read-out: % enzymatic activity relative to DMSO controls
T8 construct: LATS1/LATS2 enzymes from Signalchem

[12] = target: T9, CHK1 (Homo sapiens, UniProt O14757); assay: Kinome profiling; format: biochemical; details: VT02956 (5 nM)
T9 construct: LATS1/LATS2 enzymes from Signalchem

[13] = target: T10, TYK2 (Homo sapiens, UniProt P29597); assay: Kinome profiling; format: biochemical; details: VT02956 (5 nM)
T10 construct: LATS1/LATS2 enzymes from Signalchem

[14] = target: T11, STK38L/NDR2 (Homo sapiens, UniProt Q9Y2H1); assay: Kinome profiling; format: biochemical; details: VT02956 (5 nM), read-out: % enzymatic activity relative to DMSO controls
T11 construct: LATS1/LATS2 enzymes from Signalchem

[15] = target: T12, WNK3 (Homo sapiens, UniProt Q9BYP7); assay: Kinome profiling; format: biochemical; details: VT02956 (5 nM), read-out: % enzymatic activity relative to DMSO controls
T12 construct: LATS1/LATS2 enzymes from Signalchem

[16] = target: T13, EPHA3 (Homo sapiens, UniProt P29320); assay: Kinome profiling; format: biochemical; details: VT02956 (5 nM), read-out: % enzymatic activity relative to DMSO controls
T13 construct: LATS1/LATS2 enzymes from Signalchem

[17] = target: T14, LATS1 (Homo sapiens, UniProt O95835); assay: Kinome profiling; format: biochemical; details: VT02956 (5 nM)
T14 construct: purchased Signalchem
T14 sequence (O95835 1-1130): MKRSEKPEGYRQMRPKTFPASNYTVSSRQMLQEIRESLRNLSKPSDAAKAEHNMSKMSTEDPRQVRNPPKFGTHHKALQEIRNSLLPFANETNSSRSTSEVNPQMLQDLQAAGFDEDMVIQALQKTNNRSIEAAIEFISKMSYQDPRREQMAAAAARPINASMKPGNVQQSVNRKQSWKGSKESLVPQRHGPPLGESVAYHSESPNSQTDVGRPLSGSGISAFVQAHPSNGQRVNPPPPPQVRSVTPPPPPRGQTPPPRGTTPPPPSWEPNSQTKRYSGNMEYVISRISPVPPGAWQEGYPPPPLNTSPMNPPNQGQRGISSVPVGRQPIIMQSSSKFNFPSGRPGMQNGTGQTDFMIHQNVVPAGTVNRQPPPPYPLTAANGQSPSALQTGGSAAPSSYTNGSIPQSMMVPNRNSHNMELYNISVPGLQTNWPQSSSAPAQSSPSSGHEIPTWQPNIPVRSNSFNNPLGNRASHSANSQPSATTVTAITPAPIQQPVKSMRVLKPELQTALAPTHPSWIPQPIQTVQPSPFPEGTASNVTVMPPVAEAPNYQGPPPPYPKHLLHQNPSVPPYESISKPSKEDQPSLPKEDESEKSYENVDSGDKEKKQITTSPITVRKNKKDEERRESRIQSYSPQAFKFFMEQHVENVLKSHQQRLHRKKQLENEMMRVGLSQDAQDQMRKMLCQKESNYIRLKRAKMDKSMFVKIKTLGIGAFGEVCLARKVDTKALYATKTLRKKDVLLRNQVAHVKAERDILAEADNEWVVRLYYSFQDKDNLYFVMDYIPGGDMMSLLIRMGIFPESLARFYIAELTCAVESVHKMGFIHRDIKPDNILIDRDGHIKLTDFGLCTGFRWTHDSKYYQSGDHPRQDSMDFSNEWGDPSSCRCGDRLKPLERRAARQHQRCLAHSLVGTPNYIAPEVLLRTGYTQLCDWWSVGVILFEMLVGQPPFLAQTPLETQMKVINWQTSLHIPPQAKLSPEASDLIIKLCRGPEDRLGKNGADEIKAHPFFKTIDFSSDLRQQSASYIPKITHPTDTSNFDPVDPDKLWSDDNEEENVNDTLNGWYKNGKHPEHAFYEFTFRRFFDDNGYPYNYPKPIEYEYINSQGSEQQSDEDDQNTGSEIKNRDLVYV

[18] = target: T15, p70S6Kb/RPS6KB2 (Homo sapiens, UniProt Q9UBS0); assay: Kinome profiling; format: biochemical; details: VT02956 (5 nM), read-out: % enzymatic activity relative to DMSO controls
T15 construct: LATS1/LATS2 enzymes from Signalchem

[19] = target: T16, NEK11 (Homo sapiens, UniProt Q8NG66); assay: Kinome profiling; format: biochemical; details: VT02956 (5 nM), read-out: % enzymatic activity relative to DMSO controls
T16 construct: LATS1/LATS2 enzymes from Signalchem

[20] = target: T17, CAMKK1 (Homo sapiens, UniProt Q8N5S9); assay: Kinome profiling; format: biochemical; details: VT02956 (5 nM), read-out: % enzymatic activity relative to DMSO controls
T17 construct: LATS1/LATS2 enzymes from Signalchem
T17 sequence (Q8N5S9 whole entry): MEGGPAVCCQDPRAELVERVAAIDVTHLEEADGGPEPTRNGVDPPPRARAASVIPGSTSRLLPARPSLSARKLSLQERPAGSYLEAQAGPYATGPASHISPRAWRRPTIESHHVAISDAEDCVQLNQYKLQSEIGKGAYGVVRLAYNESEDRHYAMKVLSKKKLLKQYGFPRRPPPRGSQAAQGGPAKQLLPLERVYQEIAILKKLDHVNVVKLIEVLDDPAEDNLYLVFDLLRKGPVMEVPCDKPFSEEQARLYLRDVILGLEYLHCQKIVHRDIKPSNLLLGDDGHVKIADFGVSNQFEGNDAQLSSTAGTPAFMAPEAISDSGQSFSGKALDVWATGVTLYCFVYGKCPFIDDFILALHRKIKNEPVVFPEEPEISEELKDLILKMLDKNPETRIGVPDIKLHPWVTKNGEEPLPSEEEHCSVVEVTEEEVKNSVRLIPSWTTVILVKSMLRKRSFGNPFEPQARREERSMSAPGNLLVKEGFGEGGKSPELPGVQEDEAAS

T10 sequence (P29597 whole entry): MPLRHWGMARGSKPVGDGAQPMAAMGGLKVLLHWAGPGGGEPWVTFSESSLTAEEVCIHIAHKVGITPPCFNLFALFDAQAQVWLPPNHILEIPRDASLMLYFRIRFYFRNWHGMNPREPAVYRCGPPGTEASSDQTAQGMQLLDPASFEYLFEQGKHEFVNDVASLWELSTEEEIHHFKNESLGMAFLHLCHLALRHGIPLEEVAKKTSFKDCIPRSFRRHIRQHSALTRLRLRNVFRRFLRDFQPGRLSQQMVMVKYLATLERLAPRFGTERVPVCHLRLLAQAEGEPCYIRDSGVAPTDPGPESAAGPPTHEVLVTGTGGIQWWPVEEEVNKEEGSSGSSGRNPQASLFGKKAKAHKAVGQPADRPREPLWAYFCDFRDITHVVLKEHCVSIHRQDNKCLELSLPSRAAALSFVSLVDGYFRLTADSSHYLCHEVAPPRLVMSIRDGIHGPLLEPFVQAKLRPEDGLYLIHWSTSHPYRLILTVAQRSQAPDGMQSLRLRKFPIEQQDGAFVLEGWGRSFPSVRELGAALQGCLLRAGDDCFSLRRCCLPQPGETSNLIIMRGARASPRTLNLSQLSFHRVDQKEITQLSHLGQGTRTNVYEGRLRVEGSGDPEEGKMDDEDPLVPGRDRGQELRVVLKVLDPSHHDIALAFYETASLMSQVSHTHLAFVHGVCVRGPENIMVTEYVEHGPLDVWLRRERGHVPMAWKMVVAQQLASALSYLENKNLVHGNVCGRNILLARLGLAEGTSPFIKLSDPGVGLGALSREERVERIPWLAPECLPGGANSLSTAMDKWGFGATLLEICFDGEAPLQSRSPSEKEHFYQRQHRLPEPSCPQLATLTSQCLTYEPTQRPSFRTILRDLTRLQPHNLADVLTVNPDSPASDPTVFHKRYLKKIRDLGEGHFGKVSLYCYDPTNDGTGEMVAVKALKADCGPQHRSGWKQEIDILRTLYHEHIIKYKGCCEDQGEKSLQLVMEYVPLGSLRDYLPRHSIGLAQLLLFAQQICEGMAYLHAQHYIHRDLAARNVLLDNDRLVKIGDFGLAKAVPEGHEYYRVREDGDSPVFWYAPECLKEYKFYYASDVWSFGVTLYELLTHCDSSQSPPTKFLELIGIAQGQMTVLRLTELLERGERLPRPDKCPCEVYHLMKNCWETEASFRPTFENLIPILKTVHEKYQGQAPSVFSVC
T8 sequence (O14920 whole entry): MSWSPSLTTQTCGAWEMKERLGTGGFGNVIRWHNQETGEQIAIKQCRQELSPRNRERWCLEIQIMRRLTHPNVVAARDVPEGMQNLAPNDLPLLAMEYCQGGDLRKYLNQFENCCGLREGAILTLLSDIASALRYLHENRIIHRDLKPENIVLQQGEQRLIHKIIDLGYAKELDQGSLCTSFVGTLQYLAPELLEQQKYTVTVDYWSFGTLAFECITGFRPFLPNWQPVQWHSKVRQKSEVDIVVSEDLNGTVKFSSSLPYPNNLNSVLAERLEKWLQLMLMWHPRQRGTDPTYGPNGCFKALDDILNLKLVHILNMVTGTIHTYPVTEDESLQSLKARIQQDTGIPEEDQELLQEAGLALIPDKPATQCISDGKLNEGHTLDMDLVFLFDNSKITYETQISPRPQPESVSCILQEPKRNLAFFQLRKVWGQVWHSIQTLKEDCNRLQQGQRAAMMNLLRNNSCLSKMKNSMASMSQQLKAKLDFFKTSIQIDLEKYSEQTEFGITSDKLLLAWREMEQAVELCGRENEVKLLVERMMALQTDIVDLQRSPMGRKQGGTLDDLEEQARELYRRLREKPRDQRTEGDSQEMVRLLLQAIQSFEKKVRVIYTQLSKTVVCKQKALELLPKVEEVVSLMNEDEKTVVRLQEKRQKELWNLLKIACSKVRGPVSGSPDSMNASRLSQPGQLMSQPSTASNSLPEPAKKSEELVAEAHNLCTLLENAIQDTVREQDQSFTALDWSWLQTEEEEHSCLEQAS
T15 sequence (Q9UBS0 whole entry): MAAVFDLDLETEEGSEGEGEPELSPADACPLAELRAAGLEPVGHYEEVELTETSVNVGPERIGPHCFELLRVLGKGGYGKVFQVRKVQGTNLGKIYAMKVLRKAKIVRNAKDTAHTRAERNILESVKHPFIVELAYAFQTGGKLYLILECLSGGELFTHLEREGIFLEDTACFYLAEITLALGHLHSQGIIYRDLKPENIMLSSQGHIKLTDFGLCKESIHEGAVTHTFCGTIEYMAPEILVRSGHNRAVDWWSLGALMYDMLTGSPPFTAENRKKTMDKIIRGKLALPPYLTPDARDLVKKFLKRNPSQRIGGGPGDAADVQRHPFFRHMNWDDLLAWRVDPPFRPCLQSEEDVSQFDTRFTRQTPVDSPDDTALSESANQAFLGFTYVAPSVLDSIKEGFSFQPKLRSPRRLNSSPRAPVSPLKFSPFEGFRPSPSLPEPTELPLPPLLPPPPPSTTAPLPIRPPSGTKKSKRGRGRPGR
T6 sequence (P68400 whole entry): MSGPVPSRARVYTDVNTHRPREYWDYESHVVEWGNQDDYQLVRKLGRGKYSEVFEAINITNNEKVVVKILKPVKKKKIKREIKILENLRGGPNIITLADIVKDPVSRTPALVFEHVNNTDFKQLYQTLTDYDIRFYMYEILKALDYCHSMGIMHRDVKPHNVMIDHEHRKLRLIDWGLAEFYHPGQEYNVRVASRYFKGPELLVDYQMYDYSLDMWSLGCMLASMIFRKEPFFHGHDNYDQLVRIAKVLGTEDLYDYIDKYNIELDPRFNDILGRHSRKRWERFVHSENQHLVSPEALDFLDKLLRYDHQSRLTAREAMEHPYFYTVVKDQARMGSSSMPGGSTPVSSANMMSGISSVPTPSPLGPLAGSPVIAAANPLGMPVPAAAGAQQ
T7 sequence (P31749 whole entry): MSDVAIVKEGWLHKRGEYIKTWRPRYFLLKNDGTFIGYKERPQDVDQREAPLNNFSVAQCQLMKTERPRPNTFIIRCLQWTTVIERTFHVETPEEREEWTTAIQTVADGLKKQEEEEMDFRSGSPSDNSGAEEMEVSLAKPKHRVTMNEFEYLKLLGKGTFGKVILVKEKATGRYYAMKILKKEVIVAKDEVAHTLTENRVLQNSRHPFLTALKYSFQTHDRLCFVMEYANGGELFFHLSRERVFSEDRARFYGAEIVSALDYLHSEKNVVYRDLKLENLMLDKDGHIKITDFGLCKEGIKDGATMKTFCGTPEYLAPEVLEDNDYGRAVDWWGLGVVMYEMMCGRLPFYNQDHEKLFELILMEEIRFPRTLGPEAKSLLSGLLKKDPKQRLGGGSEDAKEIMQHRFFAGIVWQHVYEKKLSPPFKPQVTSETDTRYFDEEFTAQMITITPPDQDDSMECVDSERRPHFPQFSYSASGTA
T9 sequence (O14757 whole entry): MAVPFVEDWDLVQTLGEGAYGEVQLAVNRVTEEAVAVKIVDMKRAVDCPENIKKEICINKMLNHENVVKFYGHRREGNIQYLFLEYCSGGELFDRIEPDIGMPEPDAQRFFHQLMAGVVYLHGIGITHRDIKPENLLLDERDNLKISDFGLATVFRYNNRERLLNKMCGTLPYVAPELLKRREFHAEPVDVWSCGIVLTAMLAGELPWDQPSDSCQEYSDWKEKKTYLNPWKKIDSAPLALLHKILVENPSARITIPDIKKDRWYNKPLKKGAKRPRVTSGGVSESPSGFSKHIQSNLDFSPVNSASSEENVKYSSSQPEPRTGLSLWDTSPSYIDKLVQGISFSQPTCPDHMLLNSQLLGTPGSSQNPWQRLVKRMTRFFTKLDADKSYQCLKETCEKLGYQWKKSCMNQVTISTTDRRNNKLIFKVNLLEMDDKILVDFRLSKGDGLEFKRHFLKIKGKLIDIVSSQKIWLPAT
T16 sequence (Q8NG66 whole entry): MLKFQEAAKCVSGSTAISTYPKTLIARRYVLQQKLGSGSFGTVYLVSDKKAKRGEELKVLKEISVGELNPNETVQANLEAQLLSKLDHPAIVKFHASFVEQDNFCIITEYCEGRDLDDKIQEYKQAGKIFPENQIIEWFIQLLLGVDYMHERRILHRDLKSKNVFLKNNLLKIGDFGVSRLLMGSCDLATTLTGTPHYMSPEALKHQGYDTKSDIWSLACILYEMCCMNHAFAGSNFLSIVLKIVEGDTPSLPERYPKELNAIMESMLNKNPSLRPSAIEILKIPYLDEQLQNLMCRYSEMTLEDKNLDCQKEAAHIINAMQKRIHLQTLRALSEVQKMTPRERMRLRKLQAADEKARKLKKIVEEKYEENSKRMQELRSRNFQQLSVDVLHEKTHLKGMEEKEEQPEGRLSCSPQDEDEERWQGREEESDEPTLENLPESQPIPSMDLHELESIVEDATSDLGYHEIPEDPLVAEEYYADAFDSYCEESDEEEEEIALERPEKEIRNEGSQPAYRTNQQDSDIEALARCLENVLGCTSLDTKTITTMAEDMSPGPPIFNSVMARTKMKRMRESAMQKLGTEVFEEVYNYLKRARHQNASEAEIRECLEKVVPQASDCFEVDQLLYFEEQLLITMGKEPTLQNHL

## NCC1CCN(c2nc(-c3ccncc3)nc3c(C#CCO)cccc23)CC1 [VT02956]
[1]
  remaining activity at 0.005 µM: 38%
[2]
  remaining activity at 0.005 µM: 78%
[3]; 0.5 µM or 2 µM, 4-day time course, Supplementary Fig. 8a, b
  MCF-7 proliferation: inhibited the proliferation of MCF-7 and T47D cells
[3]; MCF-7 LATS1/2 dKO, VT02956 0.5 uM
  Cell proliferation normalised to DMSO treated WT cells: 31.2704 and 24.43 and 25.4072
[3]; MCF-7 LATS1/2 dKO, VT02956 2 uM
  Cell proliferation normalised to DMSO treated WT cells: 23.4528 and 26.3844 and 21.4984
[3]; MCF-7 WT, VT02956 0.5 uM
  Cell proliferation normalised to DMSO treated WT cells: 76.2215 and 83.0619 and 85.9935
[3]; MCF-7 WT, VT02956 2 uM
  Cell proliferation normalised to DMSO treated WT cells: 41.0423 and 42.0195
[3]; MCF-7 YAP/TAZ dKO, VT02956 0.5 uM
  Cell proliferation normalised to DMSO treated WT cells: 94.7883 and 88.9251 and 92.8339
[3]; MCF-7 YAP/TAZ dKO, VT02956 2 uM
  Cell proliferation normalised to DMSO treated WT cells: 84.0391 and 80.1303 and 85.0163
[4]; Mus musculus, 4T1 cells, n = 2, read-out: Cell viability inhibition IC50
  IC50: > 10000 nM
[4]; increasing concentrations of VT02956, Supplementary Fig. 8g
  growth of ER negative breast cancer cells 4T1 (cell viability): does not inhibit the growth
[5]; Conc. 0.00457247 (µM)
  YAP phosphorylation: 95.8709 and 110.479
[5]; Conc. 0.0137174 (µM)
  YAP phosphorylation: 110.398 and 92.919
[5]; Conc. 0.0411523 (µM)
  YAP phosphorylation: 99.5656 and 109.183
[5]; Conc. 0.123457 (µM)
  YAP phosphorylation: 90.8642 and 77.798
[5]; Conc. 0.37037 (µM)
  YAP phosphorylation: 55.9969 and 62.3937
[5]; Mus musculus, 4T1 cells, read-out: YAP phosphorylation IC50
  IC50: 430 nM
[6]
  remaining activity at 0.005 µM: 86%
[7]
  remaining activity at 0.005 µM: 74%
[8]
  remaining activity at 0.005 µM: 80%
[9]
  remaining activity at 0.005 µM: 85%
[10]
  % enzymatic activity relative to DMSO controls: 78%
[11]
  remaining activity at 0.005 µM: 86%
[12]
  % enzymatic activity relative to DMSO controls: 80%
[13]
  % enzymatic activity relative to DMSO controls: 78%
[14]
  remaining activity at 0.005 µM: 29%
[15]
  remaining activity at 0.005 µM: 82%
[16]
  remaining activity at 0.005 µM: 84%
[17]
  % enzymatic activity relative to DMSO controls: 22%
[18]
  remaining activity at 0.005 µM: 65%
[19]
  remaining activity at 0.005 µM: 82%
[20]
  remaining activity at 0.005 µM: 83%
